Reference: patent publication US11584714B2 (priority 2018, dated 2023)
Counter-ions that a name gives are not always drawn. Like-named read-outs stand apart in the source and are kept apart here.

Tests used:
Format in all cases: biochemical
Lectin Pathway = experiment: Lectin pathway activation assay in human serum (mannan-coated ELISA, C3c detection); conditions: 1% human serum
human α-thrombin = human α-thrombin (Homo sapiens (Human), UniProt P00734); experiment: Enzymatic assay for thrombin (Boc-VPR-AMC substrate)
mMASP-2 = mMASP-2 (Mus musculus (Mouse), UniProt Q91WP0); experiment: Enzymatic inhibition of mMASP-2
MASP-2 (CCP1-CCP2-SP) = MASP-2 (CCP1-CCP2-SP) (Homo sapiens (Human), UniProt O00187); experiment: biochemical; conditions: for MASP-2 vs. thrombin selectivity: selectivity for MASP-2 inhibition versus thrombin
Sequence of MASP-2 (CCP1-CCP2-SP) (O00187 445-686): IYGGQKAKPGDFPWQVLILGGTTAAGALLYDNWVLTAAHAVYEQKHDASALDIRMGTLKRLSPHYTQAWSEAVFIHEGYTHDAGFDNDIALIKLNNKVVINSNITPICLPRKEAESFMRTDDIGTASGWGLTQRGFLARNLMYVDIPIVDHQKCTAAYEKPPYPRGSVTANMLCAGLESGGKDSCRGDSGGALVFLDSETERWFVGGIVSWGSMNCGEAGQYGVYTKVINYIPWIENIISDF

Sequence of mMASP-2 (Q91WP0 20-685): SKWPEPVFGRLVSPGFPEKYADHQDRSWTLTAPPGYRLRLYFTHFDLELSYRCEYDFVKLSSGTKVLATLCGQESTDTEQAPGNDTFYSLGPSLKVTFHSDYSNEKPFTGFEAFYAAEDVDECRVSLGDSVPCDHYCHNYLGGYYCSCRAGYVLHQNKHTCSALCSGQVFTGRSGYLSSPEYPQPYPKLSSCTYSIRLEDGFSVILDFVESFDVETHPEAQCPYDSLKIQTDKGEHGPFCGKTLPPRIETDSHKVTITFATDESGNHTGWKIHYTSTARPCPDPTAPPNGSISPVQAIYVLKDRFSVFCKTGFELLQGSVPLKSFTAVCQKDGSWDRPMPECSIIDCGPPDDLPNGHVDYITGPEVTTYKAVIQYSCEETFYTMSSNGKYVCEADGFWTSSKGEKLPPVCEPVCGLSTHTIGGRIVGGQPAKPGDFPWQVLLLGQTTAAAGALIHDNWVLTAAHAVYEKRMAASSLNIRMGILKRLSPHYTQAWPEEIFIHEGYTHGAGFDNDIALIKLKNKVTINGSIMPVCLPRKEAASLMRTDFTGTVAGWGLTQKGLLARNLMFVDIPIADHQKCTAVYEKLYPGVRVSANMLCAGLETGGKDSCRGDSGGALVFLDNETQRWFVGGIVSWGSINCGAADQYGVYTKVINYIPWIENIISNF

C[C@H](NC(=O)[C@H]1C[C@H](Cc2cccc3ccccc23)CN1)C(=O)NCc1cc(Cl)ccc1-n1cnnn1 [compound 1414, (2R,4S)—N—((S)-1-((5-Chloro-2-(1H-tetrazol-1-yl)benzyl)amino)-1-oxopropan-2-yl)-4-(naphthalen-1-ylmethyl)pyrrolidine-2-carboxamide Hydrochloride]
IC50 (Lectin Pathway): 0.05 to 0.5 µM | Ki (human α-thrombin; read-out: Thrombin Ki): < 0.5 µM | Ki (mMASP-2; read-out: mMASP-2 Ki): < 0.5 µM | Ki (MASP-2 (CCP1-CCP2-SP); read-out: MASP-2 Ki): < 0.5 µM | MASP-2 vs. thrombin selectivity (MASP-2 (CCP1-CCP2-SP)): −− (<1.0-fold)

Cc1nc(N)ccc1CNC(=O)[C@H](C)NC(=O)[C@H]1C[C@H](Cc2ccc(C#N)cc2)CN1 [compound 1428, (2R,4S)—N—((S)-1-(((6-Amino-2-methylpyridin-3-yl)methyl)amino)-1-oxopropan-2-yl)-4-(4-cyanobenzyl)pyrrolidine-2-carboxamide Di-trifluoroacetate salt]
IC50 (Lectin Pathway): 0.5 to 5 µM | Ki (human α-thrombin; Thrombin Ki (μM)): 10 to 25 µM | Ki (mMASP-2; read-out: mMASP-2 Ki): 0.5 to 2.5 µM | Ki (MASP-2 (CCP1-CCP2-SP); read-out: MASP-2 Ki): < 0.5 µM | MASP-2 vs. thrombin selectivity (MASP-2 (CCP1-CCP2-SP)): **** (≥100-fold)

Cc1nc(N)ccc1CNC(=O)[C@H](C)NC(=O)[C@H]1C[C@H](Cc2ccc(Cl)cc2Cl)CN1 [compound 1443, (2R,4S)—N—((S)-1-(((6-Amino-2-methylpyridin-3-yl)methyl)amino)-1-oxopropan-2-yl)-4-(2,4-dichlorobenzyl)pyrrolidine-2-carboxamide Dihydrochloride]
IC50 (Lectin Pathway): 0.5 to 5 µM | Ki (human α-thrombin; Thrombin Ki (μM)): 0.5 to 2.5 µM | Ki (mMASP-2; read-out: mMASP-2 Ki): < 0.5 µM | Ki (MASP-2 (CCP1-CCP2-SP); read-out: MASP-2 Ki): < 0.5 µM | MASP-2 vs. thrombin selectivity (MASP-2 (CCP1-CCP2-SP)): *** (≥25 to <100-fold)

Cc1cc(C)c(O)c(CNC(=O)[C@H](C)NC(=O)[C@H]2C[C@H](c3ccccc3)CN2)c1 [compound 1383, (2R,4R)—N—((S)-1-((2-Hydroxy-3,5-dimethylbenzyl)amino)-1-oxopropan-2-yl)-4-phenylpyrrolidine-2-carboxamide Hydrochloride]
IC50 (Lectin Pathway): 5 to 50 µM | Ki (human α-thrombin; read-out: Thrombin Ki): > 25 µM | Ki (mMASP-2; read-out: mMASP-2 Ki): 2.5 to 10 µM | Ki (MASP-2 (CCP1-CCP2-SP)): 0.5 to 2.5 µM

CC(=O)Nc1ccc(CCN[C@H](CCc2ccccc2)C(=O)N[C@@H](C)C(=O)NCc2ccc(C(=N)N)cc2)cc1 [compound 1345, (R)-2-((4-acetamidophenethyl)amino)-N-((S)-1-((4-carbamimidoylbenzyl)amino)-1-oxopropan-2-yl)-4-phenylbutanamide dihydrochloride]
IC50 (Lectin Pathway): < 0.05 µM | Ki (human α-thrombin; read-out: Thrombin Ki): < 0.5 µM | Ki (mMASP-2; read-out: mMASP-2 Ki): < 0.5 µM | Ki (MASP-2 (CCP1-CCP2-SP); read-out: MASP-2 Ki): < 0.5 µM | MASP-2 vs. thrombin selectivity (MASP-2 (CCP1-CCP2-SP)): **** (≥100-fold)

Cc1cccc(C[C@@H]2CN[C@@H](C(=O)N[C@@H](C)C(=O)NCc3ccc(N)nc3C)C2)c1 [compound 1337, (2R,4S)—N—((S)-1-(((6-amino-2-methylpyridin-3-yl)methyl)amino)-1-oxopropan-2-yl)-4-(3-methylbenzyl)pyrrolidine-2-carboxamide dihydrochloride]
IC50 (Lectin Pathway): 0.5 to 5 µM | Ki (human α-thrombin; Thrombin Ki (μM)): 0.5 to 2.5 µM | Ki (mMASP-2; read-out: mMASP-2 Ki): < 0.5 µM | Ki (MASP-2 (CCP1-CCP2-SP); read-out: MASP-2 Ki): < 0.5 µM | MASP-2 vs. thrombin selectivity (MASP-2 (CCP1-CCP2-SP)): **** (≥100-fold)

Cc1nc(N)ccc1CNC(=O)[C@H](C)NC(=O)[C@H]1C[C@H](Cc2ccc(Cl)s2)CN1 [compound 1454, (2R,4R)—N—((S)-1-(((6-Amino-2-methylpyridin-3-yl)methyl)amino)-1-oxopropan-2-yl)-4-((5-chlorothiophen-2-yl)methyl)pyrrolidine-2-carboxamide Dihydrochloride]
IC50 (Lectin Pathway): 0.5 to 5 µM | Ki (human α-thrombin; Thrombin Ki (μM)): 0.5 to 2.5 µM | Ki (mMASP-2; read-out: mMASP-2 Ki): < 0.5 µM | Ki (MASP-2 (CCP1-CCP2-SP); read-out: MASP-2 Ki): < 0.5 µM | MASP-2 vs. thrombin selectivity (MASP-2 (CCP1-CCP2-SP)): *** (≥25 to <100-fold)

Cc1nc(N)ccc1CNC(=O)[C@H](C)NC(=O)[C@@H](CCc1ccccc1)NCc1ccc(Cl)cc1 [compound 1375, (R)—N—((S)-1-(((6-Amino-2-methylpyridin-3-yl)methyl)amino)-1-oxopropan-2-yl)-2-((4-chlorobenzyl)amino)-4-phenylbutanamide]
IC50 (Lectin Pathway): 0.5 to 5 µM | Ki (human α-thrombin; Thrombin Ki (μM)): 10 to 25 µM | Ki (mMASP-2; read-out: mMASP-2 Ki): 10 to 25 µM | Ki (MASP-2 (CCP1-CCP2-SP)): 0.5 to 2.5 µM | MASP-2 vs. thrombin selectivity (MASP-2 (CCP1-CCP2-SP)): ** (≥5.0 to <25-fold)

Cc1cnc(NCCc2ccccc2)c(=O)n1CC(=O)NCc1ccc2c(N)nccc2c1 [compound 1491, N-((1-Aminoisoquinolin-6-yl)methyl)-2-(6-methyl-2-oxo-3-(phenethylamino)pyrazin-1(2H)-yl)acetamide Trifluoroacetamide salt]
IC50 (Lectin Pathway): 5 to 50 µM | Ki (human α-thrombin; read-out: Thrombin Ki): < 0.5 µM | Ki (mMASP-2; read-out: mMASP-2 Ki): < 0.5 µM | Ki (MASP-2 (CCP1-CCP2-SP)): 0.5 to 2.5 µM | MASP-2 vs. thrombin selectivity (MASP-2 (CCP1-CCP2-SP)): −− (<1.0-fold)

C[C@H](NC(=O)[C@H]1C[C@H](Cc2ccccc2)CN1)C(=O)NCc1cc(Cl)ccc1-n1cnnn1 [compound 1371, (2R,4S)-4-Benzyl-N-((S)-1-((5-chloro-2-(1H-tetrazol-1-yl)benzyl)amino)-1-oxopropan-2-yl)pyrrolidine-2-carboxamide Hydrochloride]
IC50 (Lectin Pathway): 0.05 to 0.5 µM | Ki (human α-thrombin; read-out: Thrombin Ki): < 0.5 µM | Ki (mMASP-2; read-out: mMASP-2 Ki): 0.5 to 2.5 µM | Ki (MASP-2 (CCP1-CCP2-SP); read-out: MASP-2 Ki): < 0.5 µM | MASP-2 vs. thrombin selectivity (MASP-2 (CCP1-CCP2-SP)): −− (<1.0-fold)

Cc1nc(N)ccc1CNC(=O)[C@H](C)NC(=O)[C@H]1C[C@H](Cc2cc(Cl)cc(Cl)c2)CN1 [compound 1435, (2R,4S)—N—((S)-1-(((6-Amino-2-methylpyridin-3-yl)methyl)amino)-1-oxopropan-2-yl)-4-(3,5-dichlorobenzyl)pyrrolidine-2-carboxamide Dihydrochloride]
IC50 (Lectin Pathway): 0.5 to 5 µM | Ki (human α-thrombin; Thrombin Ki (μM)): 10 to 25 µM | Ki (mMASP-2; read-out: mMASP-2 Ki): < 0.5 µM | Ki (MASP-2 (CCP1-CCP2-SP); read-out: MASP-2 Ki): < 0.5 µM | MASP-2 vs. thrombin selectivity (MASP-2 (CCP1-CCP2-SP)): **** (≥100-fold)

Cc1cnc(NCCc2ccccc2)c(=O)n1CC(=O)NCc1cnc2[nH]cc(Cl)c2c1 [compound 1490, N-((3-Chloro-1H-pyrrolo[2,3-b]pyridin-5-yl)methyl)-2-(6-methyl-2-oxo-3-(phenethylamino)pyrazin-1(2H)-yl)acetamide Acetate salt]
IC50 (Lectin Pathway): 5 to 50 µM | Ki (human α-thrombin; read-out: Thrombin Ki): < 0.5 µM | Ki (mMASP-2): 2.5 to 10 µM | Ki (MASP-2 (CCP1-CCP2-SP); read-out: MASP-2 Ki): < 0.5 µM | MASP-2 vs. thrombin selectivity (MASP-2 (CCP1-CCP2-SP)): −− (<1.0-fold)

Cc1nc(N)ccc1CNC(=O)[C@H](C)NC(=O)[C@H]1C[C@H](Cc2cc(Cl)ccc2Cl)CN1 [compound 1444, (2R,4S)—N—((S)-1-(((6-Amino-2-methylpyridin-3-yl)methyl)amino)-1-oxopropan-2-yl)-4-(2,5-dichlorobenzyl)pyrrolidine-2-carboxamide Dihydrochloride]
IC50 (Lectin Pathway): 0.5 to 5 µM | Ki (human α-thrombin; read-out: Thrombin Ki): < 0.5 µM | Ki (mMASP-2; read-out: mMASP-2 Ki): < 0.5 µM | Ki (MASP-2 (CCP1-CCP2-SP); read-out: MASP-2 Ki): < 0.5 µM | MASP-2 vs. thrombin selectivity (MASP-2 (CCP1-CCP2-SP)): ** (≥5.0 to <25-fold)

Cc1[nH]c(C(=O)N[C@@H](C)C(=O)NCc2ccc(C(=N)N)cc2)cc1-c1ccccc1 [compound 1239, (S)—N-(1-((4-Carbamimidoylbenzyl)amino)-1-oxopropan-2-yl)-5-methyl-4-phenyl-1H-pyrrole-2-carboxamide]
IC50 (Lectin Pathway): 0.5 to 5 µM | Ki (human α-thrombin; Thrombin Ki (μM)): 2.5 to 10 µM | Ki (mMASP-2; read-out: mMASP-2 Ki): < 0.5 µM | Ki (MASP-2 (CCP1-CCP2-SP); read-out: MASP-2 Ki): < 0.5 µM | MASP-2 vs. thrombin selectivity (MASP-2 (CCP1-CCP2-SP)): ** (≥5.0 to <25-fold)

Cc1nc(N)ccc1CNC(=O)[C@H](C)NC(=O)[C@H]1C[C@H](Cc2ccc(Oc3ccccc3)cc2)CN1 [compound 1430, (2R,4S)—N—((S)-1-(((6-Amino-2-methylpyridin-3-yl)methyl)amino)-1-oxopropan-2-yl)-4-(4-phenoxybenzyl)pyrrolidine-2-carboxamide Di-trifluoroacetate salt]
IC50 (Lectin Pathway): 0.5 to 5 µM | Ki (human α-thrombin; read-out: Thrombin Ki): > 25 µM | Ki (mMASP-2; read-out: mMASP-2 Ki): < 0.5 µM | Ki (MASP-2 (CCP1-CCP2-SP); read-out: MASP-2 Ki): < 0.5 µM | MASP-2 vs. thrombin selectivity (MASP-2 (CCP1-CCP2-SP)): **** (≥100-fold)
